Source: patent publication US11053213B2, “Pharmaceutical compounds” (ALMAC DISCOVERY LIMITED, priority 2016, dated 2021)

The molecules below were run against USP19 (Homo sapiens (Human), UniProt O94966) (assay: USP19 activity assay (fluorescence polarisation, Ubiquitin-Lys-TAMRA substrate)). Settings: full-length USP19 2.5 nM, 30 min pre-incubation, Ub substrate 500 nM; average of at least two duplicate experiments.
Type: biochemical

USP19, sequence (O94966 whole entry): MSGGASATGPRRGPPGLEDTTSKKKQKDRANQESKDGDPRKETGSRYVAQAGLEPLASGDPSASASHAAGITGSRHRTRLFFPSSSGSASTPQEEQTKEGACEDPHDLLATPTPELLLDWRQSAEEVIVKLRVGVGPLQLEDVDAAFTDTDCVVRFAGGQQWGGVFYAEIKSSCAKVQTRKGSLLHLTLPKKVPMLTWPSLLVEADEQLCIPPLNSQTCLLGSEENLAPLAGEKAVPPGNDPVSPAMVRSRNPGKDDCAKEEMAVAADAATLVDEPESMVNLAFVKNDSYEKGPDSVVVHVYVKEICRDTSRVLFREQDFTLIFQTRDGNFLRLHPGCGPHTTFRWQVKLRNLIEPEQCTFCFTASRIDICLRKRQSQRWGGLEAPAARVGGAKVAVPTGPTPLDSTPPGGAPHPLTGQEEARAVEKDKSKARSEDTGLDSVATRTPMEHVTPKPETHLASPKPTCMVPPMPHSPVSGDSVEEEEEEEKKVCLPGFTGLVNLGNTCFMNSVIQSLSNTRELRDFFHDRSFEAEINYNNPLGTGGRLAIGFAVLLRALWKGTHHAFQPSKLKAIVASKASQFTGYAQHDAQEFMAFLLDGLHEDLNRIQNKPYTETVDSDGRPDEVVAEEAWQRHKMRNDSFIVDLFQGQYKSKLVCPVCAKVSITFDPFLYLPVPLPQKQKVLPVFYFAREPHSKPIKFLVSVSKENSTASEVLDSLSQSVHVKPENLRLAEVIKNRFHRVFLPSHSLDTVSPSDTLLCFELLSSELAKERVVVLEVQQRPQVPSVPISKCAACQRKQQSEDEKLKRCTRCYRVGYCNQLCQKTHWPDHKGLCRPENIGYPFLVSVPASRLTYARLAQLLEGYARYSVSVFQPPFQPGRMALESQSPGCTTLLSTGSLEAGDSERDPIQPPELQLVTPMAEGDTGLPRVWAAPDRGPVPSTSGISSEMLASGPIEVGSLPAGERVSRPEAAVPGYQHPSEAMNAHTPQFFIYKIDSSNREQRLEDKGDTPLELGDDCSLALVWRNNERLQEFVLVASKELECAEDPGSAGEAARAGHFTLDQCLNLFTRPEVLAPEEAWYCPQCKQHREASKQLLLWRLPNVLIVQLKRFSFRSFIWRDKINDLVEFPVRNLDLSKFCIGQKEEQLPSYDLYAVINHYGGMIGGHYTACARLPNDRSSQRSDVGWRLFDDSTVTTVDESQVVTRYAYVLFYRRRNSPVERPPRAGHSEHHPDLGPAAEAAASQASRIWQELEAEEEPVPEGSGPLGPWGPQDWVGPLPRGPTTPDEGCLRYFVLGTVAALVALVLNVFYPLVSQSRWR

IC50, 50 to 250 µM:
C[C@H](CC(=O)N1CCC(O)(Cn2cc(CN(C)C)c(-c3ccccc3)cc2=O)CC1)c1ccccc1 [Example 46, (R)-5-((Dimethylamino)methyl)-1-((4-hydroxy-1-(3-phenylbutanoyl)piperidin-4-yl)methyl)-4-phenylpyridin-2(1H)-one]
CC(C)N(C)C(=O)c1cn(CC2(O)CCN(C(=O)C3(c4cccs4)CC3)CC2)c(=O)cc1-c1ccccc1 [Example 72, 1-((4-Hydroxy-1-(1-(thiophen-2-yl)cyclopropane-1-carbonyl)piperidin-4-yl)methyl)-N-isopropyl-N-methyl-6-oxo-4-phenyl-1,6-dihydropyridine-3-carboxamide]
C[C@H](CC(=O)N1CCC(O)(Cn2ncc(-c3ccccc3)cc2=O)CC1)c1ccccc1 [Example 37, (R)-2-((4-Hydroxy-1-(3-phenylbutanoyl)piperidin-4-yl)methyl)-5-phenylpyridazin-3(2H)-one]
CN(C)C(=O)c1cn(CC2(O)CCN(C(=O)C3CCC(F)(F)C3)CC23CCCC3)c(=O)cc1-c1ccccc1 (stereo not drawn) [Example 202, 1-((7-(3,3-Difluorocyclopentane-1-carbonyl)-10-hydroxy-7-azaspiro[4.5]decan-10-yl)methyl)-N,N-dimethyl-6-oxo-4-phenyl-1,6-dihydropyridine-3-carboxamide]
O=C(CCC1CCC1)N1CCC(O)(Cn2cnc(-c3ccccc3F)cc2=O)CC1 [Example 3, 3-((1-(3-Cyclobutylpropanoyl)-4-hydroxypiperidin-4-yl)methyl)-6-(2-fluorophenyl)pyrimidin-4(3H)-one]
O=C(CCC1CCCC1)N1CCC(O)(Cn2cnc(-c3ccccc3F)cc2=O)CC1 [Example 4, 3-((1-(3-Cyclopentylpropanoyl)-4-hydroxypiperidin-4-yl)methyl)-6-(2-fluorophenyl)pyrimidin-4(3H)-one]
Cc1nc(-c2ccccc2)cc(=O)n1CC1(O)CCN(C(=O)CCc2ccccc2)CC1 [Example 34, 3-((4-Hydroxy-1-(3-phenylpropanoyl)piperidin-4-yl)methyl)-2-methyl-6-phenylpyrimidin-4(3H)-one]
C[C@H](CC(=O)N1CCC(O)(Cn2cnc(-c3ccco3)cc2=O)CC1)c1ccccc1 [Example 26, (R)-6-(Furan-2-yl)-3-((4-hydroxy-1-(3-phenylbutanoyl)piperidin-4-yl)methyl)pyrimidin-4(3H)-one]
CC(=O)Nc1ccccc1-c1cc(=O)n(CC2(O)CCN(C(=O)C[C@@H](C)c3ccccc3)CC2)cn1 [Example 85, (R)—N-(2-(1-((4-Hydroxy-1-(3-phenylbutanoyl)piperidin-4-yl)methyl)-6-oxo-1,6-dihydropyrimidin-4-yl)phenyl)acetamide]

IC50, < 0.5 µM:
C[C@H](CC1CCCCC1)C(=O)N1CCC(O)(Cn2cc(C(=O)N(C)C)c(-c3ccccc3)cc2=O)C2(CCCCC2)C1 (stereo partly drawn) [Example 237, 1-((2-((R)-3-Cyclohexyl-2-methylpropanoyl)-5-hydroxy-2-azaspiro[5.5]undecan-5-yl)methyl)-N,N-dimethyl-6-oxo-4-phenyl-1,6-dihydropyridine-3-carboxamide]
C[C@H](CC1CCCCC1)C(=O)N1CC[C@@](O)(Cn2cc(C(=O)N3CCN(C)CC3)c(-c3ccccc3)cc2=O)C2(CCCC2)C1 [Example 240, 1-(((S)-7-((R)-3-Cyclohexyl-2-methylpropanoyl)-10-hydroxy-7-azaspiro[4.5]decan-10-yl)methyl)-5-(4-methylpiperazine-1-carbonyl)-4-phenylpyridin-2(1H)-one]

IC50, 0.5 to 5 µM:
C[C@H](CC(=O)N1CCC(O)(Cn2cc(C(=O)N3CCC[C@@H]3C)c(-c3ccccc3)cc2=O)CC1)c1ccccc1 [Example 116, 1-((4-Hydroxy-1-((R)-3-phenylbutanoyl)piperidin-4-yl)methyl)-5-((S)-2-methylpyrrolidine-1-carbonyl)-4-phenylpyridin-2(1H)-one]
C[C@H](CC1CCCCC1)C(=O)N1CCC(O)(Cn2cnc(-c3ccccc3CO)cc2=O)C(C)(C)C1 (stereo partly drawn) [Example 137, 3-((1-((R)-3-Cyclohexyl-2-methylpropanoyl)-4-hydroxy-3,3-dimethylpiperidin-4-yl)methyl)-6-(2-(hydroxymethyl)phenyl)pyrimidin-4(3H)-one]
C[C@H](CC(=O)N1CCC(O)(Cn2cc(C(=O)N3CCCC3)c(-c3ccccc3)cc2=O)CC1)c1ccccc1 [Example 63, (R)-1-((4-Hydroxy-1-(3-phenylbutanoyl)piperidin-4-yl)methyl)-4-phenyl-5-(pyrrolidine-1-carbonyl)pyridin-2(1H)-one]
CN(C)C(=O)c1cn(CC2(O)CCN(C(=O)[C@H](COCc3ccccc3)CC3CCCCC3)CC2(C)C)c(=O)cc1-c1ccccc1 (stereo partly drawn) [Example 146, 1-((1-((S)-3-(Benzyloxy)-2-(cyclohexylmethyl)propanoyl)-4-hydroxy-3,3-dimethylpiperidin-4-yl)methyl)-N,N-dimethyl-6-oxo-4-phenyl-1,6-dihydropyridine-3-carboxamide]
CN(C)C(=O)c1cn(CC2(O)CCN(C(=O)c3c[nH]nc3C3CCCCC3)CC23CCCC3)c(=O)cc1-c1ccccc1 (stereo not drawn) [Example 189, 1-((7-(3-Cyclohexyl-1H-pyrazole-4-carbonyl)-10-hydroxy-7-azaspiro[4.5]decan-10-yl)methyl)-N,N-dimethyl-6-oxo-4-phenyl-1,6-dihydropyridine-3-carboxamide]
CC(C)N(C)C(=O)c1cn(CC2(O)CCN(C(=O)CCC3CCCCC3)CC2)c(=O)cc1-c1ccccc1 [Example 92, 1-((1-(3-Cyclohexylpropanoyl)-4-hydroxypiperidin-4-yl)methyl)-N-isopropyl-N-methyl-6-oxo-4-phenyl-1,6-dihydropyridine-3-carboxamide]
COc1ccccc1-c1cc(=O)n(CC2(O)CCN(C(=O)C[C@@H](C)c3ccccc3)CC2)cc1C(=O)N(C)C(C)C [Example 89, (R)-1-((4-Hydroxy-1-(3-phenylbutanoyl)piperidin-4-yl)methyl)-N-isopropyl-4-(2-methoxyphenyl)-N-methyl-6-oxo-1,6-dihydropyridine-3-carboxamide]
CC(C)N(C)C(=O)c1cn(CC2(O)CCN(C(=O)[C@H](C)CC3CCCCC3)CC2)c(=O)cc1-c1ccccc1 [Example 87, (R)-1-((1-(3-Cyclohexyl-2-methylpropanoyl)-4-hydroxypiperidin-4-yl)methyl)-N-isopropyl-N-methyl-6-oxo-4-phenyl-1,6-dihydropyridine-3-carboxamide]
C=CC[C@H](CC1CCCCC1)C(=O)N1CCC(O)(Cn2cnc(-c3ccccc3F)cc2=O)CC1 [Example 110, (R)-3-((1-(2-(Cyclohexylmethyl)pent-4-enoyl)-4-hydroxypiperidin-4-yl)methyl)-6-(2-fluorophenyl)pyrimidin-4(3H)-one]

IC50, 5 to 50 µM:
CC1(C)CN(C(=O)c2c[nH]nc2C2CCCCC2)CCC1(O)Cn1cnc(-c2ccccc2F)cc1=O (racemic) [Example 67, (R,S)-3-((1-(3-Cyclohexyl-1H-pyrazole-4-carbonyl)-4-hydroxy-3,3-dimethylpiperidin-4-yl)methyl)-6-(2-fluorophenyl)pyrimidin-4(3H)-one]
C[C@H](CC1CCCCC1)C(=O)N1CC[C@](O)(Cn2cc(C(=O)N3CCNCC3)c(-c3ccccc3)cc2=O)C(C)(C)C1 [Example 125, 1-(((R)-1-((R)-3-Cyclohexyl-2-methylpropanoyl)-4-hydroxy-3,3-dimethylpiperidin-4-yl)methyl)-4-phenyl-5-(piperazine-1-carbonyl)pyridin-2(1H)-one]
CC(OC1CCCCC1)C(=O)N1CCC(O)(Cn2cc(C(=O)N(C)C)c(-c3ccccc3)cc2=O)C2(CCCC2)C1 (stereo not drawn) [Example 199, 1-((7-(2-(Cyclohexyloxy)propanoyl)-10-hydroxy-7-azaspiro[4.5]decan-10-yl)methyl)-N,N-dimethyl-6-oxo-4-phenyl-1,6-dihydropyridine-3-carboxamide]
C[C@H](CC(=O)N1CCC(O)(Cn2cc(C(=O)N(C)Cc3ccccc3)c(-c3ccccc3)cc2=O)CC1)c1ccccc1 [Example 105, (R)—N-Benzyl-1-((4-hydroxy-1-(3-phenylbutanoyl)piperidin-4-yl)methyl)-N-methyl-6-oxo-4-phenyl-1,6-dihydropyridine-3-carboxamide]
O=C(C(O)CC1CCCCC1)N1CCC(O)(Cn2cnc(-c3ccccc3F)cc2=O)CC1 (racemic) [Example 44, (R,S)-3-((1-(3-Cyclohexyl-2-hydroxypropanoyl)-4-hydroxypiperidin-4-yl)methyl)-6-(2-fluorophenyl)pyrimidin-4(3H)-one]
C[C@H](CC(=O)N1CCC(O)(Cn2cc(-c3ccc(CN)cc3)c(-c3ccccc3)cc2=O)CC1)c1ccccc1 [Example 86, (R)-5-(4-(Aminomethyl)phenyl)-1-((4-hydroxy-1-(3-phenylbutanoyl)piperidin-4-yl)methyl)-4-phenylpyridin-2(1H)-one]
CC1(C(=O)N2CCC(O)(Cn3cnc(-c4ccccc4F)cc3=O)CC2)CCCCC1 [Example 42, 6-(2-Fluorophenyl)-3-((4-hydroxy-1-(1-methylcyclohexanecarbonyl)piperidin-4-yl)methyl)pyrimidin-4(3H)-one]
C[C@H](CC(=O)N1CCC(O)(Cn2cc(C(=O)NCC3CC3)c(-c3ccccc3)cc2=O)CC1)c1ccccc1 [Example 104, (R)—N-(Cyclopropylmethyl)-1-((4-hydroxy-1-(3-phenylbutanoyl)piperidin-4-yl)methyl)-6-oxo-4-phenyl-1,6-dihydropyridine-3-carboxamide]
CC(C)CC1(C(=O)N2CCC(O)(Cn3cnc(-c4ccccc4F)cc3=O)C(C)(C)C2)CC1 (racemic) [Example 69, (R,S)-6-(2-Fluorophenyl)-3-((4-hydroxy-1-(1-isobutylcyclopropane-1-carbonyl)-3,3-dimethylpiperidin-4-yl)methyl)pyrimidin-4(3H)-one]
CCOCCC(=O)N1CCC(O)(Cn2cc(C(=O)N(C)C)c(-c3ccccc3)cc2=O)C2(CCCC2)C1 (stereo not drawn) [Example 182, 1-((7-(3-Ethoxypropanoyl)-10-hydroxy-7-azaspiro[4.5]decan-10-yl)methyl)-N,N-dimethyl-6-oxo-4-phenyl-1,6-dihydropyridine-3-carboxamide]
